Results on 2 molecules are retold here after US20180125074A1, “PESTICIDAL COMPOSITIONS AND RELATED METHODS” (priority 2015, published 2018).

In this assay the test system is green peach aphids (Myzus persicae). Nature of the assay: Pesticidal activity against green peach aphid on cabbage plants after soil treatment. In kind it is in vivo. Particulars: for % Control at DAT of 21 days: Table 6; for % Control at DAT of 21 days / % Control at DAT of 28 days: GEROPON SDS 384 ppm. As for the experimental part:
Each tested compositions was prepared by mixing a predetermined amount of the CLOSER® SC insecticide (a sulfoxaflor concentrate having a sulfoxaflor concentration of 240 g/L) with a predetermined amount of sodium dioctylsulfosuccinate GEROPON® SDS anionic surfactant in an aqueous medium.
The compositions containing different amounts of sulfoxaflor and sodium dioctylsulfosuccinate GEROPON® SDS surfactant were prepared as shown in TABLE 4. For example, the “Sulfoxaflor at 100 ppm” composition contained about 0.043% weight of sulfoxaflor based on the total weight of the composition (i.e., 100 ppm of sulfoxaflor per one gram of final soil mixture). “Sulfoxaflor at 100 ppm+GEROPON®” composition contained about 0.043% weight of sulfoxaflor based on the total weight of the composition (i.e., 100 ppm of sulfoxaflor per one gram of final soil mixture), and about 0.225% weight of sodium dioctylsulfosuccinate GEROPON® SDS surfactant based on the total weight of the composition (i.e., 384 ppm per one gram of the final soil mixture; 1500 ppm per one gram of the total soil liquid).
The imidacloprid pesticide PROVADO® 1.6 from Bayer CropScience LP (North Carolina, USA) was used as a standard commercial pesticidal composition for aphid control. The imidacloprid pesticide PROVADO® 1.6 was tested at three different loadings: 100 ppm, 25 ppm, and 6.25 ppm per gram of final soil mixture. In this EXAMPLE 6, water was tested as a control composition. Furthermore, an aqueous solution of sodium dioctylsulfosuccinate GEROPON® SDS anionic surfactant was tested.
Cabbage plants (Brassica oleracea capitata L) of uniform size (two new leaf stage) infested with green peach aphids (Myzus persicae) (“GPA”) were used as the study models according to the following procedure:
Cabbage seeds were planted in 3-inch pots containing a peat-based METRO MIX 360® potting soil available from SUN GRO® Horticulture Canada, Ltd. The seeds were propagated in greenhouse zone G4, located in the R&D building of Dow AgroSciences (Indianapolis, Ind., USA), at 26° C. with a relative humidity of 53%. Natural light was supplemented with 1,000-watt metal halide overhead lamps with an average illumination of about 500 μE/m^2·s photosynthetic active radiation for 16 consecutive hours each day.
Each of the 1-ounce clear cups was filled with about 30 grams of the inoculated Midwest field soil having the components as shown in TABLE 5. […] The soil moisture of the Midwest field soil was about 15% as measured by Mettler LJ16 Moisture Analyzer (15 minutes and 100° C.).
The Midwest field soil in each selected 1-ounce cup was treated with about 9 mL of the selected composition using a 10 mL pipette. Deionized water was used as a control. The remainders of the 1-ounce cups were capped, and a small hole was poked into each lid to provide air flow. The remainders of the 1-ounce cups were stored in a controlled environment at 26° C. and covered with a black plastic bag to prevent any light from entering, until being used for the test.
Cabbage plants were gently removed from the 3-inch pots, and the plant roots were washed with water to remove any excess soil. Then, the cabbage plant was transplanted into the 1-ounce cup containing the treated Midwest field soil (one cabbage plant per one 1-ounce cup). The plants were watered as needed after being transplanted.
At the selected number of days after treating the Midwest field soil with the composition (i.e., numbers of days after the soil treatment, “DAT”), the cabbage plant in each 1-ounce cup was infested with GPA by placing a piece of squash leaf infested with about 25 aphids on each cabbage plant. The plants were then placed in a controlled environment at 26° C. for three days.
Five different evaluation times were performed: DAT of 0, 7, 14, 21, or 28 days. For example, for the DAT of zero (0) day, the cabbage plant was infested with GPA on the same day that it was transplanted into the treated Midwest field soil. […]

Where [1] appears, read: dose rate: sulfoxaflor 6.25 ppm, combination 6.25 + 384 ppm.
Where [2] appears, read: Table 7, dose rate: sulfoxaflor 6.25 ppm, combination 6.25 + 384 ppm.
Setting [3] is: Table 8, dose rate: sulfoxaflor 25 ppm, combination 25 + 384 ppm.

Take `C[C@@H](c1ccc(C(F)(F)F)nc1)[S@](C)(=O)=NC#N` (racemic) [Sulfoxaflor, [methyl(oxo) {1-[6-(trifluoromethyl)-3-pyridyl]ethyl}-λ^6-sulfanylidene]cyanamide, reference compound]: the “% Control at DAT of 21 days” value under setting [1] was 0%. Also, the “% Control at DAT of 28 days” value is recorded as 0% under setting [2] and 36.39% under setting [3].
Regarding `CCCCCCCCOC(=O)CC(C(=O)OCCCCCCCC)S(=O)(=O)O.[Na]` (stereo not shown) [GEROPON ® SDS Surfactant, Sodium dioctyl sulfosuccinate], for the setting “FIG. 6, cabbage in treated Midwest soil, counted three days after infestation, loading as named in the composition”, the “number of live GPA aphids at DAT of 21 days” value lay in the range of 30 to 40. Besides, the “% Control at DAT of 21 days” value under setting [1] is reported as 0%. Besides, the “% Control at DAT of 28 days” value under setting [2] worked out at 0% and the “% Control at DAT of 28 days” value under setting [3] is reported as 0%.
